Among the data in PubChem BioAssay AID292 (DTP/NCI, 2004) are T/C values, retold here.

The subject of this experiment is B6C3F1 mice, ip Sarcoma M5076, median survival T/C. Nature of the experiment: NCI In Vivo Anticancer Drug Screen. Data for tumor model Sarcoma M5076 (intraperitoneal) in B6C3F1 mice. Particulars: endpoint: median survival time, schedule: Q04DX004 (ip), higher = longer survival. In outline: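 Tumour cells were transplanted into mice, compound or vehicle was given, survival of both groups was followed, and the treated figure was expressed over the control figure.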

[1] abbreviates: dose: 50.0 mg/kg/injection, vehicle: saline with Tween-80.
Where [2] appears, read: dose: 100.0 mg/kg/injection, vehicle: saline with Tween-80.
Setting [3] is: dose: 200.0 mg/kg/injection, vehicle: saline with Tween-80.
Setting [4] is: dose: 400.0 mg/kg/injection, vehicle: saline with Tween-80.
The mark [5] stands for this setting: dose: 800.0 mg/kg/injection, vehicle: saline with Tween-80.
Where [6] appears, read: dose: 25.0 mg/kg/injection, vehicle: saline with Tween-80.
The mark [7] stands for this setting: dose: 6.25 mg/kg/injection, vehicle: water.
The mark [8] stands for this setting: dose: 12.5 mg/kg/injection, vehicle: water.
The mark [9] stands for this setting: dose: 50.0 mg/kg/injection, vehicle: water.
Where [10] appears, read: dose: 100.0 mg/kg/injection, vehicle: water.
Where [11] appears, read: dose: 50.0 mg/kg/injection, vehicle: saline.
Setting [12] is: dose: 100.0 mg/kg/injection, vehicle: saline.
Where [13] appears, read: dose: 25.0 mg/kg/injection, vehicle: Klucel (hydroxypropylcellulose) (HPC).

Molecules are shown by their SMILES. “And” between values parts separate entries of the source, which are not always exact repeats. Equal entries are not always repeated. Inconclusive results and toxic doses are left out.

For `Nc1cc(=O)n(Cc2ccco2)c(=S)[nH]1`, the T/C under setting [1] was 106 % of control; the T/C under setting [2] was 97 % of control; the T/C under setting [3] is 106 % of control; the T/C under setting [4] is 107 % of control; the T/C under setting [5] is 97 % of control.
Take `COc1cc2oc3c(C)c(=O)cc4oc(-c5ccccc5)cc(c2c2c1CCC(c1ccccc1)O2)c43` (stereo not given): the T/C (dose: 1.75 mg/kg/injection, vehicle: Klucel (hydroxypropylcellulose) (HPC)) is 109 % of control; the T/C (dose: 3.5 mg/kg/injection, vehicle: Klucel (hydroxypropylcellulose) (HPC)) is 102 % of control; the T/C (dose: 7.0 mg/kg/injection, vehicle: Klucel (hydroxypropylcellulose) (HPC)) was 102 % of control; the T/C (dose: 12.5 mg/kg/injection, vehicle: saline with Tween-80) is 98 % of control; the T/C (dose: 14.0 mg/kg/injection, vehicle: Klucel (hydroxypropylcellulose) (HPC)) was 109 % of control; the T/C under setting [6] is 98 % of control. Moreover, the T/C is, setting by setting: (dose: 28.0 mg/kg/injection, vehicle: Klucel (hydroxypropylcellulose) (HPC)) 97 % of control; under setting [1], 99 % of control and 100 % of control; under setting [2], 94 % of control and 96 % of control; under setting [3], 96 % of control and 103 % of control; under setting [4], 87 % of control; under setting [5], 110 % of control.
Consider `COc1ccc2c(c1)-c1nn(CCCN(C)C)c3ccc([N+](=O)[O-])c(c13)N2`, for which the T/C runs as follows: under setting [7], 118 % of control; under setting [8], 120 % of control; under setting [9], 156 % of control and 170 % of control; under setting [10], 96 % of control.
Turning to `COC1=C(OC)C(=O)C(C(=O)CCCCC(=O)O)=C(C)C1=O`, the T/C was 100 % of control under setting [6]; 98 % of control and 105 % of control under setting [1]; 92 % of control and 97 % of control under setting [2]; 91 % of control under setting [3]; 91 % of control and 97 % of control under setting [4]; 95 % of control under setting [5].
`Cc1ccc(C(=O)Nc2ccc(S(=O)(=O)O)c3cc(S(=O)(=O)O)cc(S(=O)(=O)O)c23)cc1NC(=O)c1cccc(NC(=O)Nc2cccc(C(=O)Nc3cc(C(=O)Nc4ccc(S(=O)(=O)O)c5cc(S(=O)(=O)O)cc(S(=O)(=O)O)c45)ccc3C)c2)c1`: the T/C is, setting by setting: (dose: 25.0 mg/kg/injection, vehicle: saline) 105 % of control; under setting [11], 108 % of control and 109 % of control; under setting [12], 112 % of control.
On to `CNCCN=c1ccc2c3c1c(O)c1c(O)ccc(=O)c1c3[nH]n2CCNCCO`, for which the T/C is 156 % of control (dose: 0.75 mg/kg/injection, vehicle: water); 162 % of control (dose: 1.5 mg/kg/injection, vehicle: water); 204 % of control (dose: 3.0 mg/kg/injection, vehicle: water); 245 % of control under setting [7]; 90 % of control under setting [8].
As to `C[n+]1c2cc(N)ccc2cc2ccc(N)cc21`, the T/C (dose: 1.5 mg/kg/injection, vehicle: saline) is 101 % of control; the T/C (dose: 3.0 mg/kg/injection, vehicle: saline) is 94 % of control; the T/C (dose: 6.0 mg/kg/injection, vehicle: saline) was 106 % of control and 118 % of control and 120 % of control; the T/C (dose: 12.0 mg/kg/injection, vehicle: saline) is 116 % of control and 123 % of control; the T/C (dose: 24.0 mg/kg/injection, vehicle: saline) is 112 % of control.
With `COC(=O)[C@@]12OC[C@]34[C@H]([C@@H](O)[C@@H]1O)[C@@]1(C)CC(=O)C(OC(=O)CC(=O)OC5=C(C)[C@@H]6C[C@H]7OC(=O)[C@H](OC(=O)/C=C(\C)C(C)C)[C@H]8[C@]9(C(=O)OC)OC[C@]78[C@H]([C@@H](O)[C@@H]9O)[C@@]6(C)CC5=O)=C(C)[C@@H]1C[C@H]3OC(=O)[C@H](OC(=O)/C=C(\C)C(C)C)[C@@H]24`, the T/C was 108 % of control (dose: 0.75 mg/kg/injection, vehicle: saline + Tween-80 + alcohol); 118 % of control (dose: 1.5 mg/kg/injection, vehicle: saline + Tween-80 + alcohol); 118 % of control (dose: 3.0 mg/kg/injection, vehicle: saline + Tween-80 + alcohol); 112 % of control (dose: 6.0 mg/kg/injection, vehicle: saline + Tween-80 + alcohol).
Consider `CN(CN1C(=O)CCC1=O)CN1C(=O)CCC1=O`, for which the T/C was 92 % of control under setting [11]; 100 % of control under setting [12]; 96 % of control (dose: 200.0 mg/kg/injection, vehicle: saline); 116 % of control (dose: 400.0 mg/kg/injection, vehicle: saline).
For the compound `C=C(OC)C(Nc1cc(OC)c(OC)cc1C(=O)OC1CC(O[C@@H]2C(=O)C(NC(=O)OC)=C3/C(=C\CSSSC)[C@]2(O)C#C/C=C\C#C[C@@H]3OC2OC(C)C(NOC3CC(O)C(SC)C(C)O3)C(O)C2OC2CC(OC)C(NCCC)CO2)OC(C)C1O)OC` (stereo not given in full), the T/C was 152 % of control (dose: 0.32 micrograms/kg/injection, vehicle: saline + alcohol) and 156 % of control (dose: 1.28 micrograms/kg/injection, vehicle: saline + alcohol).
As for `O=NNc1ccc2cccnc2n1`, the T/C is, setting by setting: under setting [8], 104 % of control; (dose: 25.0 mg/kg/injection, vehicle: water) 116 % of control; under setting [9], 151 % of control; under setting [10], 151 % of control and 161 % of control; (dose: 200.0 mg/kg/injection, vehicle: water) 174 % of control.
For `COc1ccc(CCN2C(=O)C(=O)N(C)C2=O)cc1OC`, the T/C is 89 % of control under setting [13]; 99 % of control (dose: 50.0 mg/kg/injection, vehicle: Klucel (hydroxypropylcellulose) (HPC)); 92 % of control (dose: 400.0 mg/kg/injection, vehicle: Klucel (hydroxypropylcellulose) (HPC)).
`CCCCCC[Se][Se]CCCCCC`: the T/C (dose: 3.12 mg/kg/injection, vehicle: Klucel (hydroxypropylcellulose) (HPC)) was 123 % of control; the T/C (dose: 6.25 mg/kg/injection, vehicle: Klucel (hydroxypropylcellulose) (HPC)) was 106 % of control; the T/C (dose: 12.5 mg/kg/injection, vehicle: Klucel (hydroxypropylcellulose) (HPC)) is 114 % of control; the T/C under setting [13] is 115 % of control.
`O=c1c(O)c(-c2cc(O)c(O)c(O)c2)oc2cc(O)cc(O)c12`: the T/C was 111 % of control (dose: 75.0 mg/kg/injection, vehicle: saline with Tween-80); 111 % of control (dose: 150.0 mg/kg/injection, vehicle: saline with Tween-80); 101 % of control (dose: 300.0 mg/kg/injection, vehicle: saline with Tween-80); 99 % of control (dose: 600.0 mg/kg/injection, vehicle: saline with Tween-80).
For the compound `O=C(Oc1ccccc1)c1cc(O)c(O)c(O)c1`, the T/C is, setting by setting: under setting [6], 97 % of control; under setting [1], 93 % of control; under setting [2], 92 % of control; under setting [3], 88 % of control.
For `O=C1c2ccccc2C(=O)c2c(NCCOCCO)ccc(NCCOCCO)c21`, the T/C was 100 % of control under setting [6]; 103 % of control under setting [1]; 105 % of control under setting [2]; 102 % of control under setting [3]; 99 % of control under setting [4].
